From patent publication US20160176867A1, “MODIFIED BET-PROTEIN-INHIBITING DIHYDROQUINOXALINONES AND DIHYDROPYRIDOPYRAZINONES” (BAYER PHARMA AKTIENGESELLSCHAFT, priority 2013, published 2016)
pIC50: −log10 of the molar value.

Assays:
[1] = system: B16F10 cells; experiment: Cell proliferation assay (alamarBlue), B16F10; format: cell-based; details: Mus musculus, B16-F10; B16F10 (melanoma, BRAF wild-type), 96 hours
Protocol: (§1) In accordance with the invention, the ability of the substances to inhibit cell proliferation was determined. Cell viability was determined by means of the alamarBlue® reagent (Invitrogen) in a Victor X3 Multilabel Reader (Perkin Elmer). The excitation wavelength was 530 nm and the emission wavelength […].
The B16F10 cells (ATCC, CRL-6475) were sown at a concentration of 300-500 cells/well in 100 μl of growth medium (DMEM with phenol red, 10% FCS) on 96-well microtitre plates.
(§2) After overnight incubation at 37° C., the fluorescence values were determined (CI values). Then the plates were treated with various substance dilutions (1E-5 M, 3E-6 M, 1E-6 M, 3E-7 M, 1E-7 M, 3E-8 M, 1E-8 M) and incubated at 37° C. over 96 hours (MOLM-13, B16F10, CHL-1 cells) or 120 hours (MOLP-8 cells). Subsequently, the fluorescence values were determined (CO values). For the data analysis, the CI values were subtracted from the CO values and the results were compared between cells which had been treated with various dilutions of the substance or only with buffer solution. The IC50 values (substance concentration needed for 50% inhibition of cell proliferation) were calculated therefrom.

[2] = system: MOLP-8 cells; experiment: Cell proliferation assay (alamarBlue), MOLP-8; format: cell-based; details: Homo sapiens; MOLP-8 (multiple myeloma), 120 hours
Protocol: as §1
The MOLP-8 cells (DSMZ, ACC 569) were sown at a concentration of 4000 cells/well in 100 μl of growth medium (RPMI1640, 20% FCS) on 96-well microtitre plates.
as §2

[3] = biological target: T1, BRD4 bromo domain 1 [BRD4(1)] (Homo sapiens, UniProt O60885); experiment: BRD4/acetylated peptide H4 binding assay (TR-FRET), BRD4 bromo domain 1; details: inhibition of BRD4(1)/Ac-H4 peptide interaction
T1 construct: N-terminally His6-tagged BRD4(1) (amino acids 67-152); made in house; host or cells: E. coli
Procedure, shortened: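 TR-FRET (665/620 nm ratio) measuring displacement of biotinylated tetra-acetylated H4 peptide from His6-BRD4(1) (aa 67-152, E. coli; typically 10 nM) at pH 7.5. Compound (11 concentrations, 0.1 nM–20 μM, duplicates) was preincubated 10 min at 22°C, then 1 h at 22°C and ≥3 h at 4°C; IC50 from 4-parameter fit normalized to DMSO and no-BRD4 controls.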

[4] = system: MOLM-13 cells; experiment: Cell proliferation assay (alamarBlue), MOLM-13; format: cell-based; details: Homo sapiens; MOLM-13 (acute myeloid leukaemia), 96 hours
Protocol: as §1
The MOLM-13 cells (DSMZ, ACC 554) were sown at a concentration of 4000 cells/well in 100 μl of growth medium (RPMI1640, 10% FCS) on 96-well microtitre plates.
as §2

C[C@@H]1C(=O)N(C)c2ccc(Nc3cccc(C(=O)N4CCN(C)CC4)c3)nc2N1C1CCOCC1 [Example 15, (3R)-1,3-Dimethyl-6-({3-[(4-methylpiperazin-1-yl)carbonyl]phenyl}amino)-4-(tetrahydro-2H-pyran-4-yl)-3,4-dihydropyrido[2,3-b]pyrazin-2(1H)-one]
pIC50 [1]: 5.97
pIC50 [2]: 6.50
pIC50 [3]: 6.97
pIC50 [4]: 6.29

CC(C)N1c2nc(Nc3cccc(S(=O)(=O)NCCN(C)C)c3)ccc2N(C)C(=O)[C@H]1C [Example 55, N-[2-(dimethylamino)-ethyl]-3-{[(3R)-4-isopropyl-1,3-dimethyl-2-oxo-1,2,3,4-tetrahydro-pyrido[2,3-b]pyrazin-6-yl]amino}benzene-sulphonamide]
pIC50 [1]: 6.51
pIC50 [2]: 7.32
pIC50 [3]: 6.95
pIC50 [4]: 7.11

C[C@@H]1C(=O)N(C)c2ccc(Nc3cccc(S(=O)(=O)NC4CC4)c3)nc2N1C1CCOCC1 [Example 26, N-Cyclopropyl-3-{[(3R)-1,3-dimethyl-2-oxo-4-(tetrahydro-2H-pyran-4-yl)-1,2,3,4-tetrahydropyrido[2,3-b]pyrazin-6-yl]amino}benzenesulphonamide]
pIC50 [1]: 7.60
pIC50 [2]: 7.62
pIC50 [3]: 7.77
pIC50 [4]: 7.49

C[C@@H]1C(=O)N(C)c2ccc(Nc3cccc(C(=O)NC4CCN(C)CC4)c3)nc2N1C1CCOCC1 [Example 13, 3-{[(3R)-1,3-Dimethyl-2-oxo-4-(tetrahydro-2H-pyran-4-yl)-1,2,3,4-tetrahydropyrido[2,3-b]pyrazin-6-yl]amino}-N-(1-methylpiperidin-4-yl)benzamide]
pIC50 [1]: 6.08
pIC50 [2]: 6.51
pIC50 [3]: 6.49
pIC50 [4]: 6.16

C[C@@H]1C(=O)N(C)c2ccc(Nc3cccc(S(=O)(=O)N[C@H]4CC[C@H](N5CCN(CC6CC6)CC5)CC4)c3)nc2N1C1CCNCC1 [Example 127, N-{trans-4-[4-(cyclopropylmethyl)piperazin-1-yl]cyclohexyl}-3-{[(3R)-1,3-dimethyl-2-oxo-4-(piperidin-4-yl)-1,2,3,4-tetrahydropyrido[2,3-b]pyrazin-6-yl]amino}-benzenesulphonamide]
pIC50 [1]: < 4.70
pIC50 [2]: < 5.00
pIC50 [3]: 7.33
pIC50 [4]: < 5.00

COc1ccc(S(=O)(=O)N2CCOCC2)cc1Nc1ccc2c(n1)N(C1CCN(C)CC1)[C@H](C)C(=O)N2C [Example 25, (3R)-6-{[2-Methoxy-5-(morpholin-4-ylsulphonyl)phenyl]amino}-1,3-dimethyl-4-(1-methylpiperidin-4-yl)-3,4-dihydropyrido[2,3-b]pyrazin-2(1H)-one]
pIC50 [1]: 7.37
pIC50 [2]: 7.96
pIC50 [3]: 7.80
pIC50 [4]: 7.74

C[C@@H]1C(=O)N(C)c2ccc(Nc3cccc(S(=O)(=O)N4CCOCC4)c3)cc2N1C1CCOCC1 [Example 8, (3R)-1,3-Dimethyl-6-{[3-(morpholin-4-ylsulphonyl)phenyl]amino}-4-(tetrahydro-2H-pyran-4-yl)-3,4-dihydroquinoxalin-2(1H)-one]
pIC50 [1]: 6.59
pIC50 [3]: 7.10
pIC50 [4]: 6.57

CC(C)N1c2nc(Nc3cccc(C(=O)N4CCN(C)CC4)c3)ccc2N(C)C(=O)[C@H]1C [Example 77, (3R)-4-isopropl-1,3-dimethyl-6-({3-[(4-methylpiperazin-1-yl)carbonyl]phenyl}-amino)-3,4-dihydro-pyrido[2,3-b]pyrazin-2(1H)-one]
pIC50 [1]: 6.01
pIC50 [2]: 6.31
pIC50 [3]: 6.84
pIC50 [4]: 6.00

Cc1nnc(-c2cccc(Nc3ccc4c(n3)N(C3CCOCC3)[C@H](C)C(=O)N4C)c2)o1 [Example 134, (3R)-1,3-Dimethyl-6-{[3-(5-methyl-1,3,4-oxadiazol-2-yl)phenyl]amino}-4-(tetrahydro-2H-pyran-4-yl)-3,4-dihydropyrido[2,3-b]pyrazin-2(1H)-one]
pIC50 [1]: 6.11
pIC50 [2]: 6.34
pIC50 [3]: 6.75
pIC50 [4]: 6.26

COc1ccc(S(=O)(=O)N2CCN(C)CC2)cc1Nc1ccc2c(n1)N(C1CCN(C)CC1)[C@H](C)C(=O)N2C [Example 46, (3R)-6-({2-methoxy-5-[(4-methylpiperazin-1-yl)sulphonyl]phenyl}-amino)-1,3-dimethyl-4-(1-methylpiperidin-4-yl)-3,4-dihydropyrido[2,3-b]pyrazin-2(1H)-one]
pIC50 [1]: 6.87
pIC50 [2]: 7.48
pIC50 [3]: 7.29
pIC50 [4]: 7.35

COc1ccc(S(=O)(=O)N2CCN(C)CC2)cc1Nc1ccc2c(n1)N(C1CCOCC1)[C@H](C)C(=O)N2C [Example 40, (3R)-6-({2-methoxy-5-[(4-methylpiperazin-1-yl)sulphonyl]phenyl}-amino)-1,3-dimethyl-4-(tetrahydro-2H-pyran-4-yl)-3,4-dihydropyrido[2,3-b]pyrazin-2(1H)-one]
pIC50 [1]: 6.50
pIC50 [2]: 7.14
pIC50 [3]: 7.37
pIC50 [4]: 7.01

CC1C(=O)N(C)c2ccc(Nc3cccc(C(=O)NC4CCN(C)CC4)c3)nc2N1c1ccccc1 (racemic) [Example 104, 3-[(1,3-dimethyl-2-oxo-4-phenyl-1,2,3.4-tetrahydropyrido[2,3-b]pyrazin-6-yl)amino]-A-(1-methylpiperidin-4-yl)benzamide]
pIC50 [1]: 5.61
pIC50 [2]: 6.08
pIC50 [3]: 6.02
pIC50 [4]: 5.84

C[C@@H]1C(=O)N(C)c2ccc(Nc3cccc(C(=O)N[C@H]4CC[C@H](N5CCN(CC6CC6)CC5)CC4)c3)nc2N1C1CCOCC1 [Example 14, N-{trans-4-[4-(Cyclopropylmethyl)piperazin-1-yl]cyclohexyl}-3-{[(3R)-1,3-dimethyl-2-oxo-4-(tetrahydro-2H-pyran-4-yl)-1,2,3,4-tetrahydropyrido[2,3-b]pyrazin-6-yl]amino}benzamide]
pIC50 [1]: 6.09
pIC50 [2]: 6.62
pIC50 [3]: 6.84
pIC50 [4]: 6.46

COc1ccc(S(=O)(=O)N2CC3(COC3)C2)cc1Nc1ccc2c(n1)N(C1CCOCC1)[C@H](C)C(=O)N2C [Example 30, (3R)-6-{[2-Methoxy-5-(2-oxa-6-azaspiro[3.3]hept-6-ylsulphonyl)phenyl]amino}-1,3-dimethyl-4-(tetrahydro-2H-pyran-4-yl)-3,4-dihydropyrido[2,3-b]pyrazin-2(1H)-one]
pIC50 [1]: 6.78
pIC50 [2]: 7.02
pIC50 [3]: 7.36
pIC50 [4]: 6.82

C[C@@H]1C(=O)N(C)c2ccc(Nc3cccc(S(=O)(=O)N4CCN(CC(F)(F)F)CC4)c3)nc2N1C1CCNCC1 [Example 126, (3R)-1,3-dimethyl-4-(piperidin-4-yl)-6-[(3-{[4-(2,2,2-trifluoroethyl)piperazin-1-yl]sulphonyl}phenyl)amino]-3,4-dihydropyrido[2,3-b]pyrazin-2(1H)-one]
pIC50 [1]: 5.94
pIC50 [2]: 6.89
pIC50 [3]: 7.42
pIC50 [4]: 7.08

C[C@@H]1C(=O)N(C)c2ccc(Nc3cccc(S(=O)(=O)N4CCN(C)CC4)c3)nc2N1C1CCN(C)CC1 [Example 50, (3R)-1,3-dimethyl-6-({3-[(4-methylpiperazin-1-yl)sulphonyl]phenyl}-amino)-4-(1-methyl-piperidin-4-yl)-3,4-dihydropyrido[2,3-b]pyrazin-2(1H)-one]
pIC50 [1]: 6.14
pIC50 [2]: 6.85
pIC50 [3]: 7.12
pIC50 [4]: 6.67

COc1ccc(C(=O)NC2CCN(C)CC2)cc1Nc1ccc2c(n1)N(C1CCOCC1)[C@H](C)C(=O)N2C [Example 16, 3-{[(3R)-1,3-Dimethyl-2-oxo-4-(tetrahydro-2H-pyran-4-yl)-1,2,3,4-tetrahydropyrido[2,3-b]pyrazin-6-yl]amino}-4-methoxy-N-(1-methylpiperidin-4-yl)benzamide]
pIC50 [1]: 5.94
pIC50 [2]: 6.51
pIC50 [3]: 6.63
pIC50 [4]: 6.17

C[C@@H]1C(=O)N(C)c2ccc(Nc3cccc(S(=O)(=O)N(C)C)c3)nc2N1C1CCN(C)CC1 [Example 41, 3-{[(3R)-1,3-dimethyl-4-(1-methylpiperidin-4-yl)-2-oxo-1,2,3,4-tetrahydropyrido[2,3-b]pyrazin-6-yl]amino}-N,N-dimethylbenzene-sulphonamide]
pIC50 [1]: 7.28
pIC50 [2]: 7.77
pIC50 [3]: 7.70
pIC50 [4]: 7.66

C[C@@H]1C(=O)N(C)c2ccc(Nc3cccc(S(=O)(=O)N(C)C)c3)cc2N1C1CCOCC1 [Example 7, 3-{[(3R)-1,3-Dimethyl-2-oxo-4-(tetrahydro-2H-pyran-4-yl)-1,2,3,4-tetrahydroguinoxalin-6-yl]amino}-N,N-dimethylbenzenesulphonamide]
pIC50 [1]: 6.75
pIC50 [3]: 7.34
pIC50 [4]: 6.83
